A short description of test [1]: Inhibition of goat Ca2+-ATPase assessed as liberation of inorganic phosphate preincubated for 5 mins measured after 30 mins following ATP addition by colorimetric analysis in presence of Mg2+. Further details: species or system Capra hircus. To be noted: read-out: I50.
Test [2] can be described thus: Inhibition of goat Ca2+-ATPase assessed as liberation of inorganic phosphate preincubated for 5 mins measured after 30 mins following ATP addition by colorimetric analysis in absence of Mg2+. Set-up: species or system Capra hircus. As to conditions: read-out: I50.
For test [3], the species on record is Capra hircus. Description: Inhibition of goat Ca2+-ATPase assessed as liberation of inorganic phosphate preincubated for 5 mins measured after 30 mins following ATP addition by colorimetric analysis in presence of Mg2+ and 300 uM verapamil.
The species entered for test [4] is Capra hircus. Description: Inhibition of goat Ca2+-ATPase assessed as liberation of inorganic phosphate preincubated for 5 mins measured after 30 mins following ATP addition by colorimetric analysis in absence of Mg2+ and 300 uM verapamil.
The nature of test [5]: Inhibition of sodium/potassium ATPAse.

Each structure is given as a SMILES string. pIC50: −log10 of the molar value. Calls of active or inactive are those of the source. No cut-off for these calls is given here.

Take `CCOC(=O)C1=C(C)NC(=O)NC1c1cccc([N+](=O)[O-])c1` (stereo not given): the values for the pIC50 in test [1] and in test [2] were 3.88 and 3.55, respectively. The inhibition result in the test filed under Capra hircus [3] and in the test listed under Capra hircus [4] was “Active” in each case. Moreover, in test [5], the inhibition entry is “inactive”.

Regarding `CCOC(=O)C1=C(C)NC(=O)NC1c1ccc(O)cc1` (stereo not given), the pIC50 is 3.54 in test [1] and 3.69 in test [2]. The inhibition entry in the test listed under Capra hircus [3] and in the test listed under Capra hircus [4] was “Active” throughout. For the same molecule, the inhibition entry in test [5] is “inactive”.

For the molecule `CCOC(=O)C1=C(C)NC(=O)NC1c1ccccc1Cl` (stereo not given), the pIC50 is 3.57 in test [1] and 3.61 in test [2]. The inhibition entry in the test filed under Capra hircus [3] and in the test listed under Capra hircus [4] was “Active” throughout. In addition, the inhibition entry in test [5] is “inactive”.

`CCOC(=O)C1=C(C)NC(=O)NC1c1ccccc1` (stereo not given): the pIC50 in test [1] and in test [2] was 3.65 each time. In addition, the inhibition result in the test filed under Capra hircus [3] and in the test listed under Capra hircus [4] was “Active” in each case. For the same molecule, in test [5], the inhibition result was “inactive”.

The values are drawn from ChEMBL document CHEMBL2040738, “Regioselective N1-alkylation of 3,4-dihydropyrimidine-2(1H)-ones: screening of their biological activities against Ca(2+)-ATPase” (Eur J Med Chem, 2012).
